17 compounds from ChEMBL document CHEMBL5113383, “Application of the All-Hydrocarbon Stapling Technique in the Design of Membrane-Active Peptides” (J Med Chem, 2022) can be followed below.

Positions of bridges follow the written chain, without caps; N, C: chain ends. Non-standard residues stand in square brackets, D forms with d. Residues, ends and D or L forms follow the SMILES beside them. *: point of attachment. X2 = C[C@@H]1O[C@H](*)[C@@H](O)[C@H](O)[C@@H]1O; X1 = O[C@H]1[C@H](O)[C@@H](*)OC[C@H]1O; R8 = C=CCCCCCC[C@@](C)(N)C(=O)O; R5 = C=CCCC[C@@](C)(N)C(=O)O; S5 = C=CCCC[C@](C)(N)C(=O)O; Nle = CCCC[C@H](N)C(=O)O; Orn = NCCC[C@H](N)C(=O)O

The data set in a line: Hemolytic activity in human erythrocytes incubated for 1 hr. Format: toxicity, cell-based, Erythrocyte. The following applies: for hemolysis at 1 h: read-out: Activity.

A word on the HC50: it is the concentration giving 50% haemolysis. A higher HC50 goes with weaker haemolysis. In turn, `CCCC[C@H](NC(=O)[C@H](Cc1cnc[nH]1)NC(=O)[C@H](C)NC(=O)[C@H](CCCC)NC(=O)[C@@H](NC(=O)[C@H](CCCCN)NC(=O)[C@@H]1CCCN1C(=O)[C@H](CC(C)C)NC(=O)[C@@H](NC(=O)[C@H](CCCCN)NC(=O)[C@H](CCCCN)NC(=O)[C@H](CC(C)C)NC(=O)[C@@H](NC(=O)[C@H](CO)NC(=O)[C@H](CC(C)C)NC(=O)[C@H](Cc1ccccc1)NC(=O)CN)[C@@H](C)CC)C(C)C)C(C)C)C(=O)N[C@@H](CCCCN)C(N)=O` (H-GFLSILKKVLPKV[Nle]AH[Nle]K-NH2) registered an HC50 at 1 h of 50 µM.
In turn, `CCCC[C@@H]1NC(=O)[C@@](C)(NC(=O)[C@H](CCCCN)NC(=O)[C@@H]2CCCN2C(=O)[C@H](CC(C)C)NC(=O)[C@@H](NC(=O)[C@H](CCCCN)NC(=O)[C@H](CCCCN)NC(=O)[C@H](CC(C)C)NC(=O)[C@@H](NC(=O)[C@H](CO)NC(=O)[C@H](CC(C)C)NC(=O)[C@H](Cc2ccccc2)NC(=O)CN)[C@@H](C)CC)C(C)C)CCC/C=C\CCC[C@@](C)(C(=O)N[C@@H](CCCCN)C(N)=O)NC(=O)[C@H](Cc2cnc[nH]2)NC(=O)[C@H](C)NC1=O` (H-GFLSILKKVLPK[S5][Nle]AH[S5]K-NH2; staple (Z) 13-17) returned an HC50 at 1 h of 18.1 µM.
`CCCC[C@H](NC(=O)[C@H](Cc1cnc[nH]1)NC(=O)[C@H](C)NC(=O)[C@H](CCCC)NC(=O)[C@@H](NC(=O)[C@H](CCCCN)NC(=O)[C@@H]1CCCN1C(=O)[C@H](CC(C)C)NC(=O)[C@@]1(C)CCC/C=C\CCC[C@](C)(NC(=O)[C@H](CO)NC(=O)[C@H](CC(C)C)NC(=O)[C@H](Cc2ccccc2)NC(=O)CN)C(=O)N[C@@H](CC(C)C)C(=O)N[C@@H](CCCCN)C(=O)N[C@@H](CCCCN)C(=O)N1)C(C)C)C(=O)N[C@@H](CCCCN)C(N)=O` (H-GFLS[S5]LKK[R5]LPKV[Nle]AH[Nle]K-NH2; staple (Z) 5-9): the HC50 at 1 h was 14.7 µM.
Still for that read-out and setting: in the case of `CCCC[C@@H]1NC(=O)[C@@](C)(NC(=O)[C@H](CCCCN)NC(=O)[C@@H]2CCCN2C(=O)[C@H](CC(C)C)NC(=O)[C@]2(C)CCC/C=C\CCC[C@](C)(NC(=O)[C@H](CO)NC(=O)[C@H](CC(C)C)NC(=O)[C@H](Cc3ccccc3)NC(=O)CN)C(=O)N[C@@H](CC(C)C)C(=O)N[C@@H](CCCN)C(=O)N[C@@H](CCCCN)C(=O)N2)CCC/C=C\CCC[C@@](C)(C(=O)N[C@@H](CCCCN)C(N)=O)NC(=O)[C@H](Cc2cnc[nH]2)NC(=O)[C@H](C)NC1=O` (H-GFLS[S5]L[Orn]K[S5]LPK[S5][Nle]AH[S5]K-NH2; staple (Z) 5-9, 13-17) it was 13.9 µM; in that of `CCCC[C@H](NC(=O)[C@H](Cc1cnc[nH]1)NC(=O)[C@H](C)NC(=O)[C@H](CCCC)NC(=O)[C@@H](NC(=O)[C@H](CCCCN)NC(=O)[C@@H]1CCCN1C(=O)[C@]1(C)CCC/C=C/CCCCCC[C@@](C)(NC(=O)[C@H](Cc2ccccc2)NC(=O)CN)C(=O)N[C@@H](CO)C(=O)N[C@@H]([C@@H](C)CC)C(=O)N[C@@H](CC(C)C)C(=O)N[C@@H](CCCCN)C(=O)N[C@@H](CCCCN)C(=O)N[C@@H](C(C)C)C(=O)N1)C(C)C)C(=O)N[C@@H](CCCCN)C(N)=O` (H-GF[R8]SILKKV[S5]PKV[Nle]AH[Nle]K-NH2; staple (E) 3-10), 20 µM; in that of `CCCC[C@H](NC(=O)[C@H](Cc1cnc[nH]1)NC(=O)[C@H](C)NC(=O)[C@H](CCCC)NC(=O)[C@@H](NC(=O)[C@H](CCCCN)NC(=O)[C@@H]1CCCN1C(=O)[C@]1(C)CCC/C=C\CCCCCC[C@@](C)(NC(=O)[C@H](Cc2ccccc2)NC(=O)CN)C(=O)N[C@@H](CO)C(=O)N[C@@H]([C@@H](C)CC)C(=O)N[C@@H](CC(C)C)C(=O)N[C@@H](CCCCN)C(=O)N[C@@H](CCCCN)C(=O)N[C@@H](C(C)C)C(=O)N1)C(C)C)C(=O)N[C@@H](CCCCN)C(N)=O` (H-GF[R8]SILKKV[S5]PKV[Nle]AH[Nle]K-NH2; staple (Z) 3-10), 11 µM.
For `CC[C@H](C)[C@H](NC(=O)CN)C(=O)NCC(=O)N[C@@H](CCCCN)C(=O)N[C@@H](Cc1ccccc1)C(=O)N[C@@H](CC(C)C)C(=O)N[C@@H](Cc1cnc[nH]1)C(=O)N[C@@H](CO)C(=O)N[C@@H](C)C(=O)N[C@@H](CCCCN)C(=O)N[C@@H](CCCCN)C(=O)N[C@@H](Cc1ccccc1)C(=O)NCC(=O)N[C@@H](CCCCN)C(=O)N[C@@H](C)C(=O)N[C@@H](Cc1ccccc1)C(=O)N[C@H](C(=O)NCC(=O)N[C@@]1(C)CCC/C=C\CCC[C@@](C)(C(N)=O)NC(=O)[C@H](CC(N)=O)NC(=O)[C@H](CCSC)NC(=O)[C@H]([C@@H](C)CC)NC1=O)C(C)C` (H-GIGKFLHSAKKFGKAFVG[S5]IMN[S5]-NH2; staple (Z) 19-23), the hemolysis at 1 h came to 100%.
The same measure, in the same setting: the value for `CC[C@H](C)[C@H](NC(=O)CN)C(=O)NCC(=O)N[C@@H](CCCCN)C(=O)N[C@@H](Cc1ccccc1)C(=O)N[C@@H](CC(C)C)C(=O)N[C@@H](Cc1cnc[nH]1)C(=O)N[C@@H](CO)C(=O)N[C@@H](C)C(=O)N[C@@H](CCCCN)C(=O)N[C@@H](CCCCN)C(=O)N[C@@H](Cc1ccccc1)C(=O)NCC(=O)N[C@@H](CCCCN)C(=O)N[C@@H](C)C(=O)N[C@@H](Cc1ccccc1)C(=O)N[C@@]1(C)CCC/C=C\CCC[C@@](C)(C(=O)N[C@@H](CC(N)=O)C(=O)N[C@@H](CO)C(N)=O)NC(=O)[C@H]([C@@H](C)CC)NC(=O)[C@H](CCC(=O)O)NC(=O)CNC1=O` (H-GIGKFLHSAKKFGKAF[S5]GEI[S5]NS-NH2; staple (Z) 17-21) was less than 10%.
`CC[C@H](C)[C@H](NC(=O)CN)C(=O)N[C@@H](CCSC)C(=O)N[C@@H](CO[C@H]1OC[C@@H](O)[C@@H](O)[C@@H]1O)C(=O)N[C@@H](CO)C(=O)N[C@@H](CC(C)C)C(=O)N[C@@H](CCSC)C(=O)N[C@@H](CCCCN)C(=O)N[C@@H](CCCCN)C(=O)N[C@@H](CC(C)C)C(=O)N[C@@]1(C)CCC/C=C\CCC[C@@](C)(C(=O)N[C@@H](CCCCN)C(N)=O)NC(=O)[C@H]([C@@H](C)CC)NC(=O)[C@H](Cc2cnc[nH]2)NC(=O)[C@H](C)NC1=O` (H-GIMS(X1)SLMKKL[S5]AHI[S5]K-NH2; staple (Z) 11-15) showed a 50% haemolytic concentration (HC50) at 1 h greater than 400 µM.
Compound `CC[C@H](C)[C@H](NC(=O)CN)C(=O)N[C@@H](CCSC)C(=O)N[C@@H](CO[C@H]1O[C@@H](C)[C@@H](O)[C@@H](O)[C@@H]1O)C(=O)N[C@@H](CO)C(=O)N[C@@H](CC(C)C)C(=O)N[C@@H](CCSC)C(=O)N[C@@H](CCCCN)C(=O)N[C@@H](CCCCN)C(=O)N[C@@H](CC(C)C)C(=O)N[C@@]1(C)CCC/C=C\CCC[C@@](C)(C(=O)N[C@@H](CCCCN)C(N)=O)NC(=O)[C@H]([C@@H](C)CC)NC(=O)[C@H](Cc2cnc[nH]2)NC(=O)[C@H](C)NC1=O` (H-GIMS(X2)SLMKKL[S5]AHI[S5]K-NH2; staple (Z) 11-15) yielded an HC50 at 1 h greater than 400 µM.
`CC[C@H](C)[C@H](NC(=O)[C@H](CCCCN)NC(=O)[C@H](CCCCN)NC(=O)[C@H](Cc1c[nH]c2ccccc12)NC(=O)[C@H](CC(N)=O)NC(=O)[C@@H](N)C(C)C)C(=O)N[C@@H](CC(C)C)C(=O)NCC(=O)N[C@@H](CCCCN)C(=O)N[C@@]1(C)CCC/C=C\CCC[C@@](C)(C(=O)N[C@@H](CCCCN)C(N)=O)NC(=O)[C@H](C(C)C)NC(=O)[C@H](CCCCN)NC(=O)[C@H]([C@@H](C)CC)NC1=O` (H-VNWKKILGK[S5]IKV[S5]K-NH2; staple (Z) 10-14): the HC50 at 1 h is 69 µM. In other words, the double-digit micromolar range.
Turning to `CC[C@H](C)[C@H](NC(=O)[C@]1(C)CCC/C=C\CCC[C@](C)(NC(=O)[C@H](CCCCN)NC(=O)[C@H](CCCCN)NC(=O)[C@H](Cc2c[nH]c3ccccc23)NC(=O)[C@H](CC(N)=O)NC(=O)[C@@H](N)C(C)C)C(=O)N[C@@H](CC(C)C)C(=O)NCC(=O)N[C@@H](CCCCN)C(=O)N1)C(=O)N[C@@H](CCCCN)C(=O)N[C@H](C(=O)N[C@H](C(=O)N[C@@H](CCCCN)C(N)=O)C(C)C)C(C)C` (H-VNWKK[S5]LGK[S5]IKVVK-NH2; staple (Z) 6-10), the HC50 at 1 h came out at 31.3 µM.
As to `CC[C@H](C)[C@@H]1NC(=O)[C@H](CCCCN)NC(=O)[C@H](CCCCN)NC(=O)[C@](C)(NC(=O)[C@H](CC(N)=O)NC(=O)[C@@H](N)C(C)C)CCCCCC/C=C/CCC[C@@](C)(C(=O)N[C@H](C(=O)N[C@@H](CCCCN)C(=O)N[C@H](C(=O)N[C@H](C(=O)N[C@@H](CCCCN)C(N)=O)C(C)C)C(C)C)[C@@H](C)CC)NC(=O)[C@H](CCCCN)NC(=O)CNC(=O)[C@H](CC(C)C)NC1=O` (H-VN[R8]KKILGK[S5]IKVVK-NH2; staple (E) 3-10), the HC50 at 1 h is greater than 100 µM.
The same measure, in the same setting: in the case of `CC[C@H](C)[C@@H]1NC(=O)[C@H](CCCCN)NC(=O)[C@H](CCCCN)NC(=O)[C@](C)(NC(=O)[C@H](CC(N)=O)NC(=O)[C@@H](N)C(C)C)CCCCCC/C=C\CCC[C@@](C)(C(=O)N[C@H](C(=O)N[C@@H](CCCCN)C(=O)N[C@H](C(=O)N[C@H](C(=O)N[C@@H](CCCCN)C(N)=O)C(C)C)C(C)C)[C@@H](C)CC)NC(=O)[C@H](CCCCN)NC(=O)CNC(=O)[C@H](CC(C)C)NC1=O` (H-VN[R8]KKILGK[S5]IKVVK-NH2; staple (Z) 3-10) it was 100 µM; in that of `CC[C@H](C)[C@H](NC(=O)[C@H](CCCCN)NC(=O)CNC(=O)[C@H](CC(C)C)NC(=O)[C@]1(C)CCC/C=C\CCC[C@](C)(NC(=O)[C@@H](N)C(C)C)C(=O)N[C@@H](Cc2c[nH]c3ccccc23)C(=O)N[C@@H](CCCCN)C(=O)N[C@@H](CCCCN)C(=O)N1)C(=O)N[C@H](C(=O)N[C@@H](CCCCN)C(=O)N[C@H](C(=O)N[C@H](C(=O)N[C@@H](CCCCN)C(N)=O)C(C)C)C(C)C)[C@@H](C)CC` (H-V[S5]WKK[S5]LGKIIKVVK-NH2; staple (Z) 2-6), 30 µM.
As to H-GIGKFLHSAKKFGKAFVGEIMNS-NH2, the hemolysis at 1 h is less than 2%.
With H-GIMSSLMKKLAAHIAK-NH2, the concentration for 50% haemolysis (HC50) at 1 h was greater than 400 µM.
